Source: ChEMBL document CHEMBL1152006, “Pharmacological profile and chemical synthesis of SR 48968, a non-peptide antagonist of the neurokinin A (NK2) receptor” (Bioorg Med Chem Lett, 1993)

Experiments:
Cavia porcellus [1] = assay: The compound was evaluated for the inhibition of bronchoconstriction in guinea pig at intraduodenal dose of 0.5 mg/Kg; type: functional; conditions: Lung
Substance-K receptor [2] = molecular target: T1, Substance-K receptor (Rattus norvegicus, UniProt P16610); assay: Inhibition of [125I]NKA binding to neurokinin NK2 receptor from rat duodenum membranes; type: cell membranes, Membrane
T1 sequence (P16610 whole entry): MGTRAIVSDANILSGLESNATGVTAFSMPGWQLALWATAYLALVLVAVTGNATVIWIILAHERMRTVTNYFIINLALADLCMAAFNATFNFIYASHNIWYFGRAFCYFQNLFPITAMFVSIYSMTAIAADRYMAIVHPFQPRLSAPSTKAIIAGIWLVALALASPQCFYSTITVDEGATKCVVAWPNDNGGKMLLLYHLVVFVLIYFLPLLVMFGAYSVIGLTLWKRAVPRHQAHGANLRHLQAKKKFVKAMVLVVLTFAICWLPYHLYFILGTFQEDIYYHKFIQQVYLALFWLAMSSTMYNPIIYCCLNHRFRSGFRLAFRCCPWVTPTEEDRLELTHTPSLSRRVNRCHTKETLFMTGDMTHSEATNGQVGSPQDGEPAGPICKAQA

Oryctolagus cuniculus = species on record: Oryctolagus cuniculus; assay: The compound was evaluated for the inhibition of [Nle10]-NKA(4-10)-induced contraction of the rabbit pulmonary artery; type: functional; conditions: read-out: pA2 (converted)
Cavia porcellus [3] = assay: The compound was evaluated for the inhibition of bronchoconstriction in guinea pig at intravenous dose of 0.2 mg/Kg; type: functional; conditions: Lung
Cavia porcellus [4] = assay: The compound was evaluated for its effect on bronchoconstriction induced by histamine(10 ug/kg, i.v.) in the guinea pig 60 min after administration; type: functional
Cavia porcellus [5] = assay: The compound was evaluated for its effect on bronchoconstriction induced by [Sar9,Met(O2)11]-SP(5 ug/kg, i.v.) in the guinea pig 60 min after administration; type: functional
Substance-K receptor [6] = molecular target: T2, Substance-K receptor (Mesocricetus auratus, UniProt P51144); assay: The compound was evaluated for the inhibition of [125I]NKA binding to neurokinin NK2 receptor from hamster urinary bladder membranes
T2 sequence (P51144 whole entry): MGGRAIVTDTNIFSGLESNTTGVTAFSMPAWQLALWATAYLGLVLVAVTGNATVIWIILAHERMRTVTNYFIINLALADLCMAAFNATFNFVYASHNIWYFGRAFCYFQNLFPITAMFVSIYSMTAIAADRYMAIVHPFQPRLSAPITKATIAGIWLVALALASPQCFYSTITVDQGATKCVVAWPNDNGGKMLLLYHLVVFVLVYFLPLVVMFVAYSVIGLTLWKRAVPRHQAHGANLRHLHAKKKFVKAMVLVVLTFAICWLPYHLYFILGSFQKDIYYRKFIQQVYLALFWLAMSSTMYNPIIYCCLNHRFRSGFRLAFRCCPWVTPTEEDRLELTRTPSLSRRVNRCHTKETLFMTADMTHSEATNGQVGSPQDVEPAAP

Cavia porcellus [7] = assay: The compound was evaluated for its effect on bronchoconstriction induced by acetylcholine(60 ug/kg, i.v.) in the guinea pig 60 min after administration; type: functional
Cavia porcellus [8] = assay: The compound was evaluated for its effect on bronchoconstriction induced by serotonin(10 ug/kg, i.v.) in the guinea pig 15 min after administration; type: functional
Cavia porcellus [9] = assay: The compound was evaluated for its effect on bronchoconstriction induced by histamine(10 ug/kg, i.v.) in the guinea pig 15 min after administration; type: functional
Cavia porcellus [10] = assay: The compound was evaluated for its effect on bronchoconstriction induced by acetylcholine(60 ug/kg, i.v.) in the guinea pig 15 min after administration; type: functional
Cavia porcellus [11] = assay: The compound was evaluated for its effect on bronchoconstriction induced by serotonin(10 ug/kg, i.v.) in the guinea pig 60 min after administration; type: functional
Cavia porcellus [12] = assay: The compound was evaluated for its effect on bronchoconstriction induced by [Sar9,Met(O2)11]-SP(5 ug/kg, i.v.) in the guinea pig 15 min after administration; type: functional
Cavia porcellus [13] = assay: Tested in vivo to antagonize the NKA-induced bronchoconstriction in guinea pig by intraduodenal route; type: functional; conditions: read-out: ID50 (the source's name)
Cavia porcellus [14] = assay: Tested in vivo to antagonize the NKA-induced bronchoconstriction in guinea pig intravenously; type: functional; conditions: iv, read-out: ID50 (the source's name)
Substance-K receptor [15] = molecular target: T1, Substance-K receptor; assay: The compound was evaluated for the inhibition of [125I]NKA binding to Tachykinin receptor 2 from rat duodenum membranes; type: cell membranes, Membrane

SMILES | inhibition in vivo at 0.5 mg/kg (Cavia porcellus [1]) | Ki (Substance-K receptor [2]) | Kb (Oryctolagus cuniculus) | inhibition in vivo at 0.2 mg/kg (Cavia porcellus [3]) | also measured
CCN(CC(CCN1CCC(OC(C)=O)(c2ccccc2)CC1)c1ccc(Cl)c(Cl)c1)C(=O)c1cccs1 (stereo not drawn) | 34% | 0.3 nM | 0.447 nM | 97% | –
CN(CC(CCN1CCC(CO)(c2ccccc2)CC1)c1ccc(Cl)c(Cl)c1)C(=O)c1ccccc1 (stereo not drawn) | – | 50 nM | – | – | –
CN(CC(CCN1CCC(O)(c2ccccc2)CC1)c1ccc(Cl)c(Cl)c1)C(=O)c1ccsc1 (stereo not drawn) | – | 1 nM | 0.229 nM | 77% | –
CC(=O)NC1(c2ccccc2)CCN(CCC(CNC(=O)c2ccccc2)c2ccc(Cl)c(Cl)c2)CC1 (stereo not drawn) | – | > 100 nM | – | – | –
CC(=O)NC1(c2ccccc2)CCN(CCC(CN(C)C(=O)c2ccccc2)c2ccc(Cl)c(Cl)c2)CC1 (single isomer, unassigned) [SAREDUTANT] | 100% | 0.5 nM | 0.0331 nM | 100% | Volume of air (Cavia porcellus [4]): 3.9 mL; Volume of air (Cavia porcellus [5]): 4.2 mL; Ki (Substance-K receptor [6]): 1.2 nM; Volume of air (Cavia porcellus [7]): 3.2 mL; Volume of air (Cavia porcellus [8]): 4.5 mL; Volume of air (Cavia porcellus [9]): 3.2 mL; Volume of air (Cavia porcellus [10]): 2.8 mL; Volume of air (Cavia porcellus [11]): 4.7 mL; Volume of air (Cavia porcellus [12]): 4.4 mL; ED50 (Cavia porcellus [13]): 0.35 mg/kg; ED50 (Cavia porcellus [14]): 0.037 mg/kg
CN(CC(CCN1CCC(O)(c2ccccc2)CC1)c1ccc(Cl)c(Cl)c1)C(=O)c1cccc2ccccc12 (stereo not drawn) | – | 1.5 nM | 2.34 nM | 0% | –
CN(CC(CCN1CCC(O)(c2ccccc2)CC1)c1ccc(Cl)c(Cl)c1)C(=O)c1cccs1 (stereo not drawn) | 73% | 1.4 nM | 0.0676 nM | 93% | –
CCOC1(c2ccccc2)CCN(CCC(CN(C)C(=O)c2ccccc2)c2ccc(Cl)c(Cl)c2)CC1 (stereo not drawn) | – | 0.9 nM | 0.17 nM | 40% | –
CN(CC(CCN1CCC(c2ccccc2)CC1)c1ccc(Cl)c(Cl)c1)C(=O)c1ccccc1 (stereo not drawn) | – | > 100 nM | – | – | –
CC(=O)OC1(c2ccccc2)CCN(CCC(CN(C)C(=O)c2ccccc2)c2ccc(Cl)c(Cl)c2)CC1 (stereo not drawn) | 36% | 0.3 nM | – | 98% | –
CC(=O)NCC1(c2ccccc2)CCN(CCC(CN(C)C(=O)c2ccccc2)c2ccc(Cl)c(Cl)c2)CC1 (stereo not drawn) | – | 23 nM | – | – | –
CN(CC(CCN1CCC(O)(c2ccccc2)CC1)c1ccc(Cl)c(Cl)c1)C(=O)c1ccccc1 (stereo not drawn) | – | 1 nM | 0.182 nM | 93% | –
CC(=O)NC1(c2ccccc2)CCN(CC[C@H](CN(C)C(=O)c2ccccc2)c2ccc(Cl)c(Cl)c2)CC1 [SAREDUTANT] | – | – | – | – | Ki (Substance-K receptor [15]): 945 nM
